Measured values as given in PubChem BioAssay (NCI).
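Dose response: 5 concentrations. Exposure: 48 h. Format: 96-well plates. Endpoint: linear interpolation; highest concentration if not reached. At the GI50, growth is halved. TGI: total growth inhibition.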

Columns and labels:
Assay in all cases: NCI anticancer screen, dose series, 48 h
786-0 renal = test system: 786-0 renal
A498 renal = test system: A498 renal
A549 NSCLC = test system: A549 NSCLC
ACHN renal = test system: ACHN renal
BT-549 breast = test system: BT-549 breast
CAKI-1 renal = test system: CAKI-1 renal
CCRF-CEM leukemia = test system: CCRF-CEM leukemia
COLO 205 colon = test system: COLO 205 colon
DU-145 prostate = test system: DU-145 prostate
EKVX NSCLC = test system: EKVX NSCLC
HCC-2998 colon = test system: HCC-2998 colon
HCT-116 colon = test system: HCT-116 colon
HCT-15 colon = test system: HCT-15 colon
HL-60(TB) leukemia = test system: HL-60(TB) leukemia
HOP-62 NSCLC = test system: HOP-62 NSCLC
HOP-92 NSCLC = test system: HOP-92 NSCLC
HS 578T breast = test system: HS 578T breast
HT29 colon = test system: HT29 colon
IGROV1 ovarian = test system: IGROV1 ovarian
K-562 leukemia = test system: K-562 leukemia
KM12 colon = test system: KM12 colon
LOX IMVI melanoma = test system: LOX IMVI melanoma
M14 melanoma = test system: M14 melanoma
MCF7 breast = test system: MCF7 breast
MDA-MB-231 breast = test system: MDA-MB-231 breast
MDA-MB-435 = test system: MDA-MB-435
MOLT-4 leukemia = test system: MOLT-4 leukemia
NCI-H226 lung = test system: NCI-H226 lung
NCI-H23 lung = test system: NCI-H23 lung
NCI-H460 lung = test system: NCI-H460 lung
NCI-H522 lung = test system: NCI-H522 lung
NCI/ADR-RES ovarian = test system: NCI/ADR-RES ovarian
OVCAR-3 ovarian = test system: OVCAR-3 ovarian
OVCAR-4 ovarian = test system: OVCAR-4 ovarian
OVCAR-5 ovarian = test system: OVCAR-5 ovarian
OVCAR-8 ovarian = test system: OVCAR-8 ovarian
PC-3 prostate = test system: PC-3 prostate
RPMI-8226 leukemia = test system: RPMI-8226 leukemia
RXF 393 renal = test system: RXF 393 renal
SF-268 CNS = test system: SF-268 CNS
SF-295 CNS = test system: SF-295 CNS
SF-539 CNS = test system: SF-539 CNS
SK-MEL-2 melanoma = test system: SK-MEL-2 melanoma
SK-MEL-28 melanoma = test system: SK-MEL-28 melanoma
SK-MEL-5 melanoma = test system: SK-MEL-5 melanoma
SK-OV-3 ovarian = test system: SK-OV-3 ovarian
SN12C renal = test system: SN12C renal
SNB-19 CNS = test system: SNB-19 CNS
SNB-75 CNS = test system: SNB-75 CNS
SR leukemia = test system: SR leukemia
SW-620 colon = test system: SW-620 colon
TK-10 renal = test system: TK-10 renal
U251 CNS = test system: U251 CNS
UACC-257 melanoma = test system: UACC-257 melanoma
UACC-62 melanoma = test system: UACC-62 melanoma
UO-31 renal = test system: UO-31 renal

CCCn1cnc2c(c1=N)C(c1ccc(F)cc1)c1sc3c(CC)cccc3c1O2 (stereo unspecified)
GI50 (786-0 renal): 443 nM | TGI (786-0 renal): > 89200 nM | GI50 (A498 renal): 79.9 nM | TGI (A498 renal): 1040 nM | GI50 (A549 NSCLC): 236 nM | TGI (A549 NSCLC): > 90700 nM | GI50 (ACHN renal): 133 nM | TGI (ACHN renal): 49900 nM | GI50 (BT-549 breast): 1990 nM | TGI (BT-549 breast): 19100 nM | GI50 (CAKI-1 renal): 62.1 nM | TGI (CAKI-1 renal): 18300 nM | GI50 (CCRF-CEM leukemia): 314 nM | TGI (CCRF-CEM leukemia): > 67900 nM | GI50 (COLO 205 colon): 354 nM | TGI (COLO 205 colon): 1950 nM | GI50 (DU-145 prostate): 309 nM | TGI (DU-145 prostate): 15300 nM | GI50 (EKVX NSCLC): 481 nM | TGI (EKVX NSCLC): > 100000 nM | GI50 (HCC-2998 colon): 337 nM | TGI (HCC-2998 colon): 38700 nM | GI50 (HCT-116 colon): 263 nM | TGI (HCT-116 colon): 4770 nM | GI50 (HCT-15 colon): 179 nM | TGI (HCT-15 colon): > 100000 nM | GI50 (HL-60(TB) leukemia): 243 nM | TGI (HL-60(TB) leukemia): 1080 nM | GI50 (HOP-62 NSCLC): 423 nM | TGI (HOP-62 NSCLC): 29700 nM | GI50 (HOP-92 NSCLC): 53.8 nM | TGI (HOP-92 NSCLC): 4190 nM | GI50 (HS 578T breast): 86.4 nM | TGI (HS 578T breast): > 88000 nM | GI50 (HT29 colon): 302 nM | TGI (HT29 colon): 27300 nM | GI50 (IGROV1 ovarian): 176 nM | TGI (IGROV1 ovarian): 24000 nM | GI50 (K-562 leukemia): 58.3 nM | TGI (K-562 leukemia): > 100000 nM | GI50 (KM12 colon): 275 nM | TGI (KM12 colon): > 42300 nM | GI50 (LOX IMVI melanoma): 40.4 nM | TGI (LOX IMVI melanoma): 31300 nM | GI50 (M14 melanoma): 182 nM | TGI (M14 melanoma): 33600 nM | GI50 (MCF7 breast): 24.7 nM | TGI (MCF7 breast): > 100000 nM | GI50 (MDA-MB-231 breast): 325 nM | TGI (MDA-MB-231 breast): > 62300 nM | GI50 (MDA-MB-435): 23.9 nM | TGI (MDA-MB-435): 60 nM | GI50 (MOLT-4 leukemia): 434 nM | TGI (MOLT-4 leukemia): > 100000 nM | GI50 (NCI-H226 lung): 395 nM | GI50 (NCI-H23 lung): 138 nM | TGI (NCI-H23 lung): 19300 nM | GI50 (NCI-H460 lung): 211 nM | TGI (NCI-H460 lung): 13900 nM | GI50 (NCI-H522 lung): 35.9 nM | TGI (NCI-H522 lung): 8080 nM | GI50 (NCI/ADR-RES ovarian): 50.1 nM | TGI (NCI/ADR-RES ovarian): 26400 nM | GI50 (OVCAR-3 ovarian): 68 nM | TGI (OVCAR-3 ovarian): 7680 nM | GI50 (OVCAR-4 ovarian): 336 nM | TGI (OVCAR-4 ovarian): > 100000 nM | GI50 (OVCAR-5 ovarian): 493 nM | TGI (OVCAR-5 ovarian): > 100000 nM | GI50 (OVCAR-8 ovarian): 434 nM | TGI (OVCAR-8 ovarian): > 100000 nM | GI50 (PC-3 prostate): 79.8 nM | TGI (PC-3 prostate): > 51400 nM | GI50 (RPMI-8226 leukemia): 200 nM | TGI (RPMI-8226 leukemia): > 22900 nM | GI50 (RXF 393 renal): 29.4 nM | TGI (RXF 393 renal): 130 nM | GI50 (SF-268 CNS): 241 nM | TGI (SF-268 CNS): > 100000 nM | GI50 (SF-295 CNS): 47.8 nM | TGI (SF-295 CNS): > 47900 nM | GI50 (SF-539 CNS): 94.9 nM | TGI (SF-539 CNS): 815 nM | GI50 (SK-MEL-2 melanoma): 7570 nM | TGI (SK-MEL-2 melanoma): > 100000 nM | GI50 (SK-MEL-28 melanoma): 8900 nM | TGI (SK-MEL-28 melanoma): > 100000 nM | GI50 (SK-MEL-5 melanoma): 99.8 nM | TGI (SK-MEL-5 melanoma): 1200 nM | GI50 (SK-OV-3 ovarian): 1210 nM | TGI (SK-OV-3 ovarian): 35000 nM | GI50 (SN12C renal): 398 nM | TGI (SN12C renal): 22500 nM | GI50 (SNB-19 CNS): 273 nM | TGI (SNB-19 CNS): 49400 nM | GI50 (SNB-75 CNS): 35.3 nM | TGI (SNB-75 CNS): 36500 nM | GI50 (SR leukemia): 117 nM | TGI (SR leukemia): > 42300 nM | GI50 (SW-620 colon): 237 nM | TGI (SW-620 colon): > 100000 nM | GI50 (TK-10 renal): 19400 nM | TGI (TK-10 renal): > 100000 nM | GI50 (U251 CNS): 273 nM | TGI (U251 CNS): > 40600 nM | GI50 (UACC-257 melanoma): 27500 nM | TGI (UACC-257 melanoma): > 100000 nM | GI50 (UACC-62 melanoma): 38 nM | TGI (UACC-62 melanoma): 29000 nM | GI50 (UO-31 renal): 81.3 nM | TGI (UO-31 renal): > 100000 nM
